From paper doi:10.1101/2024.05.02.592243v1, “Vestibular Modulation by Stimulant Derivatives in a Pentameric Ligand-Gated Ion Channel” (biorxiv, 2024)

Key:
sTeLIC [1] = molecular target: T1, sTeLIC (endosymbiont of Tevnia jerichonana, UniProt G2FID1); assay: two-electrode voltage clamp, Xenopus laevis oocytes; assay type: cell-based; design: gene TevJSym_bc00020; homopentamer (C5); oocyte rows: sTeLIC cDNA in vector pMT3, Xenopus laevis oocytes; conditions: pH 8.5 (~EC20), 30-s coapplication, -40 mV
T1 sequence (G2FID1 1-320): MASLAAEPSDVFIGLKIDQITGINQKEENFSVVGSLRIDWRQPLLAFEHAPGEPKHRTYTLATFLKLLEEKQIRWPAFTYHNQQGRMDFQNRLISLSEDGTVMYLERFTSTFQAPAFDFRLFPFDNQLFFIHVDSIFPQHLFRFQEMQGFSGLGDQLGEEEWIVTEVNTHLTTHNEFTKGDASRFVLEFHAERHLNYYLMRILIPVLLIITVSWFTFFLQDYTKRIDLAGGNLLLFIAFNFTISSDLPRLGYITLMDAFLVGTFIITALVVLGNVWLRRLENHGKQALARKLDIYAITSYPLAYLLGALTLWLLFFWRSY

sTeLIC [2] = molecular target: T1, sTeLIC; assay: X-ray co-crystal structure, […] A, anomalous Br signal; assay type: binding; design: gene TevJSym_bc00020; homopentamer (C5); oocyte rows: sTeLIC cDNA in vector pMT3, Xenopus laevis oocytes; structures: N-terminal MBP fusion (pET20b, E. coli C43(DE3)), MBP cut off with thrombin; conditions: pH 8.0, DDM/NDG detergent, 3 mM ligand; vestibular site, open state
sTeLIC [3] = molecular target: T1, sTeLIC; assay: cryo-EM structure; assay type: binding; design: gene TevJSym_bc00020; homopentamer (C5); oocyte rows: sTeLIC cDNA in vector pMT3, Xenopus laevis oocytes; structures: N-terminal MBP fusion (pET20b, E. coli C43(DE3)), MBP cut off with thrombin; conditions: pH 7.5, saposin nanodisc, 2 mM FFC-8; density in vestibular site, open state

SMILES: C[C@H](N)Cc1ccc(Br)cc1 [BrAmp]
- % modulation (sTeLIC [1]; positive allosteric modulator, vestibular site, up to 200 uM): BrAmp showed positive modulatory effects similar to BrCA
- X-ray co-crystal structure, 3.2 A, anomalous Br signal (sTeLIC [2]): Anomalous signal from the bromine atom of BrAmp allowed definitive placement in the vestibular pocket

SMILES: C[N+](C)(C)CCOP(=O)([O-])OCCC(F)(F)C(F)(F)C(F)(F)C(F)(F)C(F)(F)C(F)(F)F [FFC-8]
- cryo-EM structure (sTeLIC [3]): This density could reasonably accommodate fluorinated fos-choline-8 (FFC-8)
- % modulation (sTeLIC [1]; positive modulator, micromolar concentrations): micromolar concentrations of FFC-8 potentiated sTeLIC currents in oocytes
